In patent US20130109714A1, “NEURODEGENERATIVE DISEASE THERAPEUTIC AGENT” (National University Corporation Hokkaido University, priority 2010, published 2013):

How the values were obtained:
[1] = system: cerebral stroke model rat; details: in vivo
[2] = system: primary nerve cells of the rat ventral midbrain; assay: H2O2-induced cell death in primary nerve cells, MTT assay; assay type: cell-based; details: 1 μM compound for 20 h, then 200 μM H2O2 for 3 h
Method: From germinal cells of a rat at 17-19 days pregnant, primary nerve cells of the rat ventral midbrain were prepared. To evaluate presence of dopamine-producing neurons in a cell culture, the cell culture was immunostained with anti-NeuN antibody and anti-TH antibody to identify each of whole neurons and dopamine-producing neurons, and cell nuclei were stained with DAPI.
Therefore, it was clarified that No. 23 provides a resistance against nerve cell death induced by oxidative stress.

[3] = system: mouse injected with 6-OHDA to the unilateral (left) midbrain; assay: 6-OHDA Parkinson's disease model, methamphetamine-induced rotational behavior; assay type: in vivo; details: administered together with methamphetamine, up to 7 days after administration
Method: To evaluate effects of a DJ-1 bound compound on Parkinson's disease in vivo, 6-OHDA was stereotactically injected to the unilateral (left) midbrain of a mouse. Then, the DJ-1 bound compound (No. 23) was administered together with methamphetamine. Here, administration of methamphetamine to an animal induces ipsilateral movement relative to the injection site. Accordingly, by the administration of methamphetamine to a mouse, a rotational behavior is observed.

`COc1cc(C(=O)Nc2ccc(-c3cn4cccc(C)c4n3)cc2)cc(OC)c1OC` [No. 23] was tested. Which “cell death in brain, TTC staining, infarct area and volume (FIGS. 4-7)” value [1] did it give?
The value was “significantly suppresses cell death”.

What about the “cell death caused by hydrogen peroxide in primary nerve cells (FIG. 12)” value [2] of the same compound?
The value was “no cell death was observed”.

And the “rotational behavior, number of rotations (FIGS. 15 and 16)” value [3]?
The value was “significantly suppressed”.
